A short description of data set [1]: Solubility of finafloxacin HCl in different concentrations of Tris solutions (Example 2). Type of data set: physicochemical. How it is done:
0.25 M Tris: Water for injection 800 ml, Tris 30.3 g, sodium chloride 7.5 g, water for injection ad 1000 ml; pH was adjusted with HCl/NaOH. 0.17 M Tris: Water for injection 800 ml, Tris 20.0 g, sodium chloride 7.5 g, water for injection ad 1000 ml; pH was adjusted with HCl/NaOH. 0.08 M Tris: Water for injection 800 ml, Tris 10.0 g, sodium chloride 7.5 g, water for injection ad 1000 ml; pH was adjusted with HCl/NaOH. […] In contrast to example 1 the pH was not re-adjusted after the stepwise addition of finafloxacin.

Data set [2] in a line: Solubility of finafloxacin HCl in Tris, phosphate and pH-adjusted WfI (Example 1). The class given is physicochemical. How it is done:
The solubility of finafloxacin, in form of its mono-hydrochloride salt, was tested at pH values between 7.3 and 9.0, using the following solutions: 0.01 M Tris: Water for injection 800 ml, Tris 1.21 g, sodium chloride 7.5 g, water for injection ad 1000 ml; pH was adjusted with HCl/NaOH. 0.025 M Phosphate: Water for injection 800 ml, sodium dihydrogen phosphate 1.950 g, disodium hydrogen phosphate 2.225 g, sodium chloride 7.5 g, water for injection ad 1000 ml; pH was adjusted with HCl/NaOH. WfI: Water for injection 900 ml, sodium chloride 7.5 g, water for injection ad 1000 ml; pH was adjusted with HCl/NaOH.

The next data set has as its system E. coli 25922. Description: In vitro susceptibility test (MIC), finafloxacin composition with Tris. The class given is cell-based. Conditions: Escherichia coli, composition at pH 8.0 containing 0.05 M Tris, read-out: minimal inhibitory concentration (MIC). How it is done:
(§1) The efficacy of finafloxacin compositions including Tris between pH 8.0-8.5 was examined and determined as follows:
(§2) 4.1 Bacteria were incubated in a finafloxacin composition at pH 8.0 containing 0.05 M Tris and the minimal inhibitory concentration (MIC) of finafloxacin, defined as the minimal finafloxacin concentration that inhibited the growth of the bacterium, was determined using a standard in vitro susceptibility test.

Another data set concerns S. aureus 29213. The description is as above. The class given is cell-based. Conditions: Staphylococcus aureus, composition at pH 8.0 containing 0.05 M Tris, read-out: minimal inhibitory concentration (MIC). Here is the method:
as §1, §2

In the next data set the test system is E. coli ATCC 25922. In words: Mouse intraperitoneal infection model, bacterial burden. The class given is in vivo. Conditions: mice, composition with 0.01 M Tris, doses 4 and 12 hours post infection, burden 24 hours post infection. How it is done: 4.2 Mice were infected with 3.9×10^5 E. coli ATCC 25922 suspended in 1% porcine mucin administered by a 0.5 ml intraperitoneal injection. Antibacterial treatment with a finafloxacin composition comprising 0.01 M Tris was initiated 4 hours post infection with a second dose 12 hours post infection. The bacterial burden in the peritoneal fluid and blood culture was determined 24 hours post infection. Finafloxacin was effective at all doses with 1 mg/kg causing a reduction in burden of 3.1 log 10 cfu/g, finafloxacin administered at 3, 10 and 30 mg/kg were increasingly effective causing reductions of 4.4, 5.0 and 6.5 log 10 cfu/g, respectively.

A short description of data set [3]: Stability of finafloxacin composition comprising Tris (Example 3). Type of data set: physicochemical. Conditions: solution of 3.20 g/l finafloxacin, 7.80 g/l NaCl, 1.21 g/l Tris, pH 8.25, water for injection. The source says: The following composition was used to test the stability: [table]
Data set [4] in a line: 2-week intravenous toxicological appraisal in rats. Type of data set: in vivo. Conditions: 2 weeks, 60, 120 and 200 mg/kg/day, in 0.01 M Tris, 0.75% (w/v) sodium chloride, pH 8.5. The source says:
The test article was formulated in 0.01 M Tris containing sodium chloride to 0.75% (w/v), adjusted in water for injection to pH 8.5.

The subject of the next data set is pathogen in the urine. In words: Microbiological cure in patients with complicated urinary tract infections and pyelonephritis. Type of data set: in vivo, human. The settings on record: intravenous 800 mg once daily, composition with 0.01 M Tris, 17 days after start of treatment, cure = pathogen in urine ≤10^3 cfu/ml. Here is the method:
4.3 Patients with complicated urinary tract infections and pyelonephritis were treated with an intravenous dose of 800 mg Finafloxacin once daily. 17 days after the start of the treatment the microbiological cure results were determined. Microbiological cure is defined as the reduction of the concentration of the pathogen in the urine to a titer of ≤10^3 cfu/ml. The finafloxacin composition comprising 0.01 M Tris caused an efficient eradication of the pathogens. The microbiological cure rate was 83%.

In brackets after ≈: the same amount, converted by molar mass.

Consider `Cl.N#Cc1c(N2C[C@@H]3NCCO[C@H]3C2)c(F)cc2c(=O)c(C(=O)O)cn(C3CC3)c12` [Finafloxacin HCl], for which the solubility was found to be 4000 µg/mL in data set [1] (0.08 M Tris, pH 7.8, pH not re-adjusted); 6000 µg/mL in data set [1] (0.08 M Tris, pH 8.2, pH not re-adjusted); 9000 µg/mL in data set [1] (0.08 M Tris, pH 8.6, pH not re-adjusted); 10000 µg/mL in data set [1] (0.08 M Tris, pH 9.0, pH not re-adjusted); 2000 µg/mL in data set [1] (0.17 M Tris, pH 7.4, pH not re-adjusted); 6000 µg/mL in data set [1] (0.17 M Tris, pH 7.8, pH not re-adjusted). Further, the solubility amounted to 10000 µg/mL in data set [1] (0.17 M Tris, pH 8.2, pH not re-adjusted); 19000 µg/mL in data set [1] (0.17 M Tris, pH 8.6, pH not re-adjusted); 23000 µg/mL in data set [1] (0.17 M Tris, pH 9.0, pH not re-adjusted); 2000 µg/mL in data set [1] (0.25 M Tris, pH 7.4, pH not re-adjusted); 8000 µg/mL in data set [1] (0.25 M Tris, pH 7.8, pH not re-adjusted); 15000 µg/mL in data set [1] (0.25 M Tris, pH 8.2, pH not re-adjusted). Also, the solubility in data set [1] (0.25 M Tris, pH 8.6, pH not re-adjusted) is 24000 µg/mL; in data set [1] (0.25 M Tris, pH 9.0, pH not re-adjusted), 28000 µg/mL; in data set [2] (0.01 M Tris, pH 7.5, pH re-adjusted), 6000 µg/mL; in data set [2] (0.01 M Tris, pH 8.0, pH re-adjusted), 15000 µg/mL; in data set [2] (0.01 M Tris, pH 8.5, pH re-adjusted) it was >28000 µg/mL; in data set [2] (0.01 M Tris, pH 9.0, pH re-adjusted), >28000 µg/mL. Further, the solubility worked out at 2000 µg/mL in data set [2] (0.025 M Phosphate, pH 7.5, pH re-adjusted); 4000 µg/mL in data set [2] (0.025 M Phosphate, pH 8.0, pH re-adjusted); 6000 µg/mL in data set [2] (0.025 M Phosphate, pH 8.5, pH re-adjusted); 8000 µg/mL in data set [2] (0.025 M Phosphate, pH 9.0, pH re-adjusted); 2000 µg/mL in data set [2] (pH-adjusted WfI, pH 7.5); 4000 µg/mL in data set [2] (pH-adjusted WfI, pH 8.0). The solubility in data set [2] (pH-adjusted WfI, pH 8.5) is 6000 µg/mL; in data set [2] (pH-adjusted WfI, pH 9.0), 6000 µg/mL.

Turning to `N#Cc1c(N2C[C@@H]3NCCO[C@H]3C2)c(F)cc2c(=O)c(C(=O)O)cn(C3CC3)c12` [Finafloxacin, (−)-8-cyano-1-cyclopropyl-6-fluoro-7-[(4aS,7aS)-hexahydropyrrolo[3,4-b]-1,4-oxazin-6(2H)-yl]-4-oxo-1,4-dihydroquinoline-3-carboxylic acid], the MIC in the data set on E. coli 25922 turned out to be 0.25 µg/mL (≈ 0.628 µM); with S. aureus 29213, 0.5 µg/mL (≈ 1.26 µM). In addition, the reduction in burden was determined as 3.1 log 10 cfu/g with E. coli ATCC 25922 (1 mg/kg), 4.4 log 10 cfu/g with E. coli ATCC 25922 (3 mg/kg), 5.0 log 10 cfu/g with E. coli ATCC 25922 (10 mg/kg) and 6.5 log 10 cfu/g in the data set with E. coli ATCC 25922 (30 mg/kg). The long term stability entry in data set [3] is “at least 24 months”. Further, the increase in solubility in data set [2] (0.01 M Tris versus WfI and phosphate buffer) is given as 3-4 fold. The tolerability entry in data set [4] is “generally well tolerated”. This compound came in with a microbiological cure rate in the data set with pathogen in the urine of 83%.

(Values after US10576088B2, “Compositions comprising finafloxacin and Tris” (MerLion Pharmaceuticals Pte. Ltd., priority 2014, dated 2020).)
